Source: patent US12691111B2, “SETD2 inhibitors and related methods and uses, including combination therapies” (EPIZYME, INC., priority 2020, dated 2026)

Key:
KMS-11 = test: 7-day co-treatment combination study, CellTiter-Glo, Loewe Volume; conditions: for Combination effect (Loewe Volume class) of Cpd. No. 15 with combination partner: KMS-11 multiple myeloma cells, 7-day co-treatment with Cpd. No. 15
JEKO1 = test: as above; format: cell-based; conditions: JEKO1 mantle cell lymphoma cells, 7-day co-treatment with Cpd. No. 15
Method: (§1) Multiple myeloma (MM) and mantle cell lymphoma (MCL) Cell line cultures in log-linear growth rate were treated with combinations of Cpd. No. 15 and combination partners according to a co-treatment model. […] No. 15 and the combination partner. […] Each combination was tested in quadruplicate wells. The final concentration of DMSO (vehicle) in the assay was 0.1% v/v. Fifty microliters of cell line suspension were directly dispensed to the assay-ready plates with an automated multichannel dispenser on to 384-well assay-ready plates. Assay plates were incubated for seven days in a humidified atmosphere of 5% CO2 at 37° C. Quantification of the effect of single agents or combinations on cell viability was performed through measurement of cellular adenosine triphosphate (ATP) using a CellTiter-Glo® (Promega, MadisonWIs.) Luminescent Cell Viability Assay. Luminescence was detected using a SpectraMax M5 microplate reader (Molecular Devices, Sunnyvale, CA). Concentration response plots were generated in GraphPad Prism version 7.0 for Windows, GraphPad Software, (La Jolla, CA) and curves fitted to a four-parameter logistic model with variable slope. Percent of inhibition was calculated at each treatment concentration.
(§2) The results of these combinations are summarized in Tables A and B (multiple myeloma cell lines), and Tables C and D (mantle cell lymphoma cell lines).

GRANTA519 = test: as above; format: cell-based; conditions: GRANTA519 mantle cell lymphoma cells, 7-day co-treatment with Cpd. No. 15
Method: as §1, §2

REC1 = test: as above; format: cell-based; conditions: REC1 mantle cell lymphoma cells, 7-day co-treatment with Cpd. No. 15
Method: as §1, §2

MINO = test: as above; format: cell-based; conditions: MINO mantle cell lymphoma cells, 7-day co-treatment with Cpd. No. 15
Method: as §1, §2

JVM2 = test: as above; format: cell-based; conditions: JVM2 mantle cell lymphoma cells, 7-day co-treatment with Cpd. No. 15
Method: as §1, §2

MAVER1 = test: as above; format: cell-based; conditions: MAVER1 mantle cell lymphoma cells, 7-day co-treatment with Cpd. No. 15
Method: as §1, §2

Z138 = test: as above; format: cell-based; conditions: Z138 mantle cell lymphoma cells, 7-day co-treatment with Cpd. No. 15
Method: as §1, §2

SUDHL-6 = test: Pre-treatment model combination study (4 days pre-treatment, 3 days co-treatment), CellTiter-Glo, Loewe Volume; format: cell-based; conditions: SUDHL-6 diffuse large B-cell lymphoma cells, 4 days Cpd. No. 15 pre-treatment then 3 days co-treatment
Method: (§3) Diffuse large B-cell lymphoma cells were seeded into flasks and pre-treated with several concentrations of Cpd. No. 15 or DMSO. Cells were then split adjusted to initial density, replated and co-treated Cpd. No. 15 and a second agent of interest using the HP D300 digital dispenser (Tecan Group, Mannedorf, Switzerland) in tissue culture treated solid white 384-well plates for additional 3 days. […] After 3 days cotreatment, cell viability was measured via ATP content using CellTiter-Glo® (Promega, Madison, WI) and luminescence was detected using a SpectraMax M5 microplate reader (Molecular Devices, Sunnyvale, CA).
(§4) Diffuse large B-cell lymphoma (DLBCL) cell line cultures in log-linear growth rate were treated with combinations of Cpd. No. 15 and combination partners according to a pre-treatment model. Cells were seeded first into 8 flasks and pre-treated with 7 different concentrations of Cpd. […] Cells were harvested from each flask and re-seeded onto the corresponding 384-well plate with the same concentration of Cpd. No. 15. and 9 concentrations of its combination partner in triplicate wells. The final concentration of DMSO (vehicle) in the assay was 0.1% v/v. Fifty microliters of cell line(s) suspension were directly dispensed to the assay-ready plates with an automated multichannel dispenser on to 384-well assay-ready plates. Assay plates were incubated for three days in a humidified atmosphere of 5% CO2 at 37° C. Quantification of the effect of single agents or combinations on cell viability was performed through measurement of cellular adenosine triphosphate (ATP) using CellTiter-Glo® (Promega, Madison, WI). Luminescence was detected using a SpectraMax M5 microplate reader (Molecular Devices, Sunnyvale, CA). Concentration response plots were generated in GraphPad Prism version 8.0 for Windows, GraphPad Software, (La Jolla, CA) and curves fitted to a four-parameter logistic model with variable slope. Percent of inhibition was calculated at each treatment concentration.

SUDHL-2 = test: as above; format: cell-based; conditions: SUDHL-2 diffuse large B-cell lymphoma cells, 4 days Cpd. No. 15 pre-treatment then 3 days co-treatment
Method: as §3, §4

KARPAS422 = test: as above; format: cell-based; conditions: KARPAS422 diffuse large B-cell lymphoma cells, 4 days Cpd. No. 15 pre-treatment then 3 days co-treatment
Method: as §3, §4

WSUDLCL2 = test: as above; format: cell-based; conditions: WSUDLCL2 diffuse large B-cell lymphoma cells, 4 days Cpd. No. 15 pre-treatment then 3 days co-treatment
Method: as §3, §4

KMS-28-BM = test: 7-day co-treatment combination study, CellTiter-Glo, Loewe Volume; format: cell-based; conditions: KMS-28-BM multiple myeloma cells, 7-day co-treatment with Cpd. No. 15
Method: as §1, §2

NCI-H929 = test: as above; format: cell-based; conditions: NCI-H929 multiple myeloma cells, 7-day co-treatment with Cpd. No. 15
Method: as §1, §2

L363 = test: as above; format: cell-based; conditions: L363 multiple myeloma cells, 7-day co-treatment with Cpd. No. 15
Method: as §1, §2

MM1.S = test: as above; format: cell-based; conditions: MM1.S multiple myeloma cells, 7-day co-treatment with Cpd. No. 15
Method: as §1, §2

KMS34 = test: as above; format: cell-based; conditions: KMS34 multiple myeloma cells, 7-day co-treatment with Cpd. No. 15
Method: as §1, §2

RPMI-8226 = test: as above; format: cell-based; conditions: RPMI-8226 multiple myeloma cells, 7-day co-treatment with Cpd. No. 15
Method: as §1, §2

| SMILES | Combination effect (Loewe Volume class) of Cpd. No. 15 with combination partner (KMS-28-BM) | Combination effect (Loewe Volume class) of Cpd. No. 15 with combination partner (NCI-H929) | Combination effect (Loewe Volume class) of Cpd. No. 15 with combination partner (KMS-11) | Combination effect (Loewe Volume class) of Cpd. No. 15 with combination partner (L363) | Combination effect (Loewe Volume class) of Cpd. No. 15 with combination partner (MM1.S) | Combination effect (Loewe Volume class) of Cpd. No. 15 with combination partner (KMS34) | Combination effect (Loewe Volume class) of Cpd. No. 15 with combination partner (RPMI-8226) | other results |
| --- | --- | --- | --- | --- | --- | --- | --- | --- |
| CC(=O)N1CCN([C@H]2CCC[C@@H](NC(=O)c3cc4c(F)ccc(C)c4[nH]3)C2)CC1 [Cpd. No. 15, N-((1R,3S)-3-(4-acetylpiperazin-1-yl)cyclohexyl)-4-fluoro-7-methyl-1H-indole-2-carboxamide] |  |  |  |  |  |  |  | anti-proliferative activity of Cpd. No. 15 combined with pomalidomide (KMS-11; KMS-11 cells, 7-day co-treatment study, combined with pomalidomide (FIG. 3)): synergistic |
| C[C@]12C=CC(=O)C=C1CC[C@@H]1[C@@H]2[C@@H](O)C[C@@]2(C)[C@H]1CC[C@]2(O)C(=O)CO [Prednisolone, prednisolone] |  |  |  |  |  |  |  | Combination effect (Loewe Volume class) of Cpd. No. 15 with combination partner (JEKO1): Additivity (between 1 and −1: additivity); Combination effect (Loewe Volume class) of Cpd. No. 15 with combination partner (GRANTA519): Synergy (VLoewe>1: synergy); Combination effect (Loewe Volume class) of Cpd. No. 15 with combination partner (REC1): Synergy (VLoewe>1: synergy); Combination effect (Loewe Volume class) of Cpd. No. 15 with combination partner (MINO): Additivity (between 1 and −1: additivity); Combination effect (Loewe Volume class) of Cpd. No. 15 with combination partner (JVM2): Additivity (between 1 and −1: additivity); Combination effect (Loewe Volume class) of Cpd. No. 15 with combination partner (MAVER1): Synergy (VLoewe>1: synergy); Combination effect (Loewe Volume class) of Cpd. No. 15 with combination partner (Z138): Additivity (between 1 and −1: additivity); Combination effect (Loewe Volume class) of Cpd. No. 15 with combination partner (SUDHL-6): Synergy (VLoewe>1: synergy); Combination effect (Loewe Volume class) of Cpd. No. 15 with combination partner (SUDHL-2): Synergy (VLoewe>1: synergy); Combination effect (Loewe Volume class) of Cpd. No. 15 with combination partner (KARPAS422): Additivity (between 1 and −1: additivity); Combination effect (Loewe Volume class) of Cpd. No. 15 with combination partner (WSUDLCL2): Antagonism (<−1: antagonistic) |
| CCN(c1cc(C#CCN2CCOCC2)cc(C(=O)NCc2c(C)cc(C)[nH]c2=O)c1C)[C@H]1CC[C@H](N(C)CCOC)CC1 [EPZ-11989] | Additivity (between 1 and −1: additivity) | No Effect | Additivity (between 1 and −1: additivity) |  |  |  |  |  |
| Nc1cccc2c1C(=O)N(C1CCC(=O)NC1=O)C2=O (centres unmarked) [Pomalidomide, pomalidomide] | Additivity (between 1 and −1: additivity) | Synergy (VLoewe>1: synergy) | Synergy (VLoewe>1: synergy) | Additivity (between 1 and −1: additivity) | Additivity (between 1 and −1: additivity) | Synergy (VLoewe>1: synergy) | Synergy (VLoewe>1: synergy) |  |
| C[C@@H]1C[C@H]2[C@@H]3CCC4=CC(=O)C=C[C@]4(C)[C@@]3(F)[C@@H](O)C[C@]2(C)[C@@]1(O)C(=O)CO [Dexamethasone, dexamethasone] | Additivity (between 1 and −1: additivity) | Synergy (VLoewe>1: synergy) | Synergy (VLoewe>1: synergy) | Synergy (VLoewe>1: synergy) | Additivity (between 1 and −1: additivity) | Synergy (VLoewe>1: synergy) | Synergy (VLoewe>1: synergy) |  |
| O=C(/C=C\n1cnc(-c2cc(C(F)(F)F)cc(C(F)(F)F)c2)n1)NNc1cnccn1 [Selinexor, selinexor] | Additivity (between 1 and −1: additivity) | Synergy (VLoewe>1: synergy) | Additivity (between 1 and −1: additivity) | Additivity (between 1 and −1: additivity) | Additivity (between 1 and −1: additivity) | Synergy (VLoewe>1: synergy) | Additivity (between 1 and −1: additivity) |  |
| Cc1[nH]c2ccccc2c1CCNCc1ccc(/C=C/C(=O)NO)cc1 [Panobinostat, panobinostat] | Additivity (between 1 and −1: additivity) | Synergy (VLoewe>1: synergy) | Additivity (between 1 and −1: additivity) | Additivity (between 1 and −1: additivity) | Additivity (between 1 and −1: additivity) | Synergy (VLoewe>1: synergy) | Additivity (between 1 and −1: additivity) |  |
| Cc1nc2cccc(N)c2c(=O)n1C1CCC(=O)NC1=O (centres unmarked) [CC-122] | Additivity (between 1 and −1: additivity) | Synergy (VLoewe>1: synergy) | Synergy (VLoewe>1: synergy) | Additivity (between 1 and −1: additivity) | Additivity (between 1 and −1: additivity) | Synergy (VLoewe>1: synergy) | Additivity (between 1 and −1: additivity) |  |
